Source: US20250368628A1, “METHODS AND COMPOUNDS FOR MODULATING INHERITED GENETIC DISEASES” (Design Therapeutics, Inc., priority 2022, published 2025)

What was measured:
[1] = tested on: F35T cells; assay: Foci reduction in FECD (CAG10-Cy3 FISH, foci per nucleus); format: cell-based; conditions: F35T cells, 48 h treatment, foci per nucleus; read-out: FECD EC50, 48 h
Outline: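 F35T cells, 5000 per well, were treated for 48 h at 37 °C, 5% CO2 in an 8-point dose response. Cells were then fixed in 4% PFA, permeabilized in 70% ethanol and hybridized overnight at 37 °C with a CAG10-Cy3 probe in 30% formamide/2×SSC. After DAPI staining, imaging gave foci per nucleus.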

[2] = tested on: Myotonic Dystrophy 1 affected patient fibroblasts (Coriel GM04602; 1600 CTG repeats); assay: DM1 foci reduction assay (EC50 assay; CAG10-Cy3 FISH, foci per nucleus); format: cell-based; conditions: Homo sapiens, Fibroblast; DM1 patient fibroblasts, 48 h treatment, foci per nucleus; read-out: DM1 EC50, 48 h
Outline: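 GM04602 DM1 patient fibroblasts (1600 CTG repeats) seeded 24 h, then treated 48 h at 37 °C with an 8-point 1:3 dose series from 3 μM. Cells PFA-fixed, ethanol-permeabilized and hybridized overnight with 5 nM CAG10-Cy3 probe, DAPI counterstained. Imaged at 20×, 4 fields per well, as average foci per nucleus.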

CCCNC(=O)CCNC(=O)c1nc(NC(=O)c2cc(NC(=O)CCNC(=O)c3nc(NC(=O)CCCNC(=O)c4cc(NC(=O)c5nc(NC(=O)CCNC(=O)c6cc(NC(=O)c7nc(N=C(N(C)C)N(C)C)cn7C)cn6C)cn5C)cn4C)cn3C)cn2C)cn1C [Compound B-326]
EC50 [1]: > 1000 nM | EC50 [2]: 100 to 500 nM

CCCNC(=O)c1nc(NC(=O)c2cc(NC(=O)CCNC(=O)c3nc(NC(=O)CCCNC(=O)c4cc(NC(=O)c5nc(NC(=O)CCNC(=O)c6cc(NC(=O)c7nc(NC=O)cn7C)cn6C)cn5C)cn4C)cn3C)cn2C)cn1C [Compound B-327]
EC50 [1]: < 100 nM | EC50 [2]: < 100 nM

CCCNC(=O)c1nc(NC(=O)c2cc(NC(=O)CCNC(=O)c3nc(NC(=O)CCCNC(=O)c4cc(NC(=O)c5nc(NC(=O)CCNC(=O)c6cc(NC(=O)c7nc(N=C(N)N)cn7C)cn6C)cn5C)cn4C)cn3C)cn2C)cn1C [Compound B-328]
EC50 [1]: 100 to 500 nM | EC50 [2]: 100 to 500 nM

Cn1cc(NC(=O)c2nc(NC(=O)CCNC(=O)c3cc(NC(=O)c4nccn4C)cn3C)cn2C)cc1C(=O)NCCCC(=O)Nc1cn(C)c(C(=O)NCCC(=O)Nc2cc(C(=O)Nc3cn(C)c(C(=O)NCCCOCOP(=O)(O)O)n3)n(C)c2)n1 [Compound B-332]
EC50 [1]: < 100 nM | EC50 [2]: 100 to 500 nM

Cn1cc(NC(=O)c2nc(NC(=O)CCNC(=O)c3cc(NC(=O)c4nccn4C)cn3C)cn2C)cc1C(=O)NCCCC(=O)Nc1cn(C)c(C(=O)NCCC(=O)Nc2cc(C(=O)Nc3cn(C)c(C(=O)NCCC(=O)NC(CO)CO)n3)n(C)c2)n1 [Compound B-333]
EC50 [1]: 100 to 500 nM | EC50 [2]: 500 to 1000 nM

Cn1cc(NC(=O)c2nc(NC(=O)CCNC(=O)c3cc(NC(=O)c4nccn4C)cn3C)cn2C)cc1C(=O)NCCCC(=O)Nc1cn(C)c(C(=O)NCCC(=O)Nc2cc(C(=O)Nc3cn(C)c(C(=O)NCCCNC(CO)CO)n3)n(C)c2)n1 [Compound B-335]
EC50 [1]: 100 to 500 nM | EC50 [2]: 100 to 500 nM

Cn1cc(NC(=O)c2nc(NC(=O)CCNC(=O)c3cc(NC(=O)c4nccn4C)cn3C)cn2C)cc1C(=O)NCCCC(=O)Nc1cn(C)c(C(=O)NCCC(=O)Nc2cc(C(=O)Nc3cn(C)c(C(=O)NCCCCCCCN)n3)n(C)c2)n1 [Compound B-337]
EC50 [1]: < 100 nM | EC50 [2]: 100 to 500 nM

COC(=O)c1cccc(C#CCCCN(C)CCCNC(=O)c2nc(NC(=O)c3cc(NC(=O)CCNC(=O)c4nc(NC(=O)CCCNC(=O)c5cc(NC(=O)c6nc(NC(=O)CCNC(=O)c7cc(NC(=O)c8nccn8C)cn7C)cn6C)cn5C)cn4C)cn3C)cn2C)c1 [Compound B-341]
EC50 [1]: < 100 nM | EC50 [2]: < 100 nM

COC(=O)c1cccc(NCCCCNC(=O)c2nc(NC(=O)c3cc(NC(=O)CCNC(=O)c4nc(NC(=O)CCCNC(=O)c5cc(NC(=O)c6nc(NC(=O)CCNC(=O)c7cc(NC(=O)c8nccn8C)cn7C)cn6C)cn5C)cn4C)cn3C)cn2C)c1 [Compound B-343]
EC50 [1]: < 100 nM | EC50 [2]: < 100 nM

Cn1cc(NC(=O)c2nc(NC(=O)CCNC(=O)c3cc(NC(=O)c4nccn4C)cn3C)cn2C)cc1C(=O)NCCCC(=O)Nc1cn(C)c(C(=O)NCCC(=O)Nc2cc(C(=O)Nc3cn(C)c(C(=O)NCCC(=O)N4CCC(C#CC5=CCN(C(=O)OCC6c7ccccc7-c7ccccc76)CC5)CC4)n3)n(C)c2)n1 [Compound B-345]
EC50 [1]: 500 to 1000 nM | EC50 [2]: > 1000 nM

Cn1cc(NC(=O)c2nc(NC(=O)CCNC(=O)c3cc(NC(=O)c4nccn4C)cn3C)cn2C)cc1C(=O)NCCCC(=O)Nc1cn(C)c(C(=O)NCCC(=O)Nc2cc(C(=O)Nc3cn(C)c(C(=O)NCCC(=O)N4CCC(C#CC5=CCNCC5)CC4)n3)n(C)c2)n1 [Compound B-346]
EC50 [1]: < 100 nM | EC50 [2]: 100 to 500 nM

Cn1cc(NC(=O)c2nc(NC(=O)CCNC(=O)c3cc(NC(=O)c4nccn4C)cn3C)cn2C)cc1C(=O)NCCCC(=O)Nc1cn(C)c(C(=O)NCCC(=O)Nc2cc(C(=O)Nc3cn(C)c(C(=O)NCCC(=O)N4CC=C(C#CC5CCN(C(=O)OC(C)(C)C)CC5)CC4)n3)n(C)c2)n1 [Compound B-347]
EC50 [1]: 100 to 500 nM | EC50 [2]: < 100 nM

Cn1cc(NC(=O)c2nc(NC(=O)CCNC(=O)c3cc(NC(=O)c4nccn4C)cn3C)cn2C)cc1C(=O)NCCCC(=O)Nc1cn(C)c(C(=O)NCCC(=O)Nc2cc(C(=O)Nc3cn(C)c(C(=O)NCCC(=O)N4CC=C(C#CC5CCNCC5)CC4)n3)n(C)c2)n1 [Compound B-348]
EC50 [1]: 100 to 500 nM | EC50 [2]: 500 to 1000 nM

COCCOCCOCCOCCOCCOCCC(=O)NCCCCCCn1cc(NC(=O)c2nc(NC(=O)CCNC(=O)c3cc(NC(=O)c4nccn4C)cn3C)cn2C)cc1C(=O)NCCCC(=O)Nc1cn(C)c(C(=O)NCCC(=O)Nc2cc(C(=O)Nc3cn(C)c(C(=O)NCCC(=O)N4CCC(C#CC#CC5CCN(C(=O)OC(C)(C)C)CC5)CC4)n3)n(C)c2)n1 [Compound B-351]
EC50 [1]: < 100 nM | EC50 [2]: > 1000 nM

CC(=O)NCCCCCCn1cc(NC(=O)c2nc(NC(=O)CCNC(=O)c3cc(NC(=O)c4nccn4C)cn3C)cn2C)cc1C(=O)NCCCC(=O)Nc1cn(C)c(C(=O)NCCC(=O)Nc2cc(C(=O)Nc3cn(C)c(C(=O)NCCC(=O)N4CCC(C#CC#CC5CCN(C(=O)OC(C)(C)C)CC5)CC4)n3)n(C)c2)n1 [Compound B-356]
EC50 [1]: 500 to 1000 nM | EC50 [2]: > 1000 nM

CN(CCCN)CCCNC(=O)c1cc(NC(=O)CCNC(=O)c2nc(NC(=O)CCCNC(=O)c3cc(NC(=O)c4nc(NC(=O)CCNC(=O)c5cc(NC(=O)c6nccn6C)cn5C)cn4C)cn3CCCCCCN=[N+]=[N-])cn2C)cn1C [Compound B-358]
EC50 [1]: > 1000 nM | EC50 [2]: > 1000 nM

CN(CCCNC(=O)c1cccc(C(=O)OC(C)(C)C)c1)CCCNC(=O)c1cc(NC(=O)CCNC(=O)c2nc(NC(=O)CCCNC(=O)c3cc(NC(=O)c4nc(NC(=O)CCNC(=O)c5cc(NC(=O)c6nccn6C)cn5C)cn4C)cn3CCCCCCN=[N+]=[N-])cn2C)cn1C [Compound B-359]
EC50 [1]: > 1000 nM | EC50 [2]: > 1000 nM

COC(=O)c1cccc(C#CCNCCCNC(=O)c2nc(NC(=O)c3cc(NC(=O)CCNC(=O)c4nc(NC(=O)CCCNC(=O)c5cc(NC(=O)c6nc(NC(=O)CCNC(=O)c7cc(NC(=O)c8nccn8C)cn7C)cn6C)cn5C)cn4C)cn3C)cn2C)c1 [Compound B-361]
EC50 [1]: < 100 nM | EC50 [2]: < 100 nM

COC(=O)c1ccc(C#CCNCCCNC(=O)c2nc(NC(=O)c3cc(NC(=O)CCNC(=O)c4nc(NC(=O)CCCNC(=O)c5cc(NC(=O)c6nc(NC(=O)CCNC(=O)c7cc(NC(=O)c8nccn8C)cn7C)cn6C)cn5C)cn4C)cn3C)cn2C)cc1 [Compound B-362]
EC50 [1]: < 100 nM | EC50 [2]: < 100 nM

CN(CCCNC(=O)OC(C)(C)C)CCCNC(=O)c1nc(NC(=O)c2cc(NC(=O)CCNC(=O)c3nc(NC(=O)CCCNC(=O)c4cc(NC(=O)c5nc(NC(=O)CCNC(=O)c6cc(NC(=O)c7nccn7C)cn6C)cn5C)cn4CCCCCCN=[N+]=[N-])cn3C)cn2C)cn1C [Compound B-363]
EC50 [1]: < 100 nM | EC50 [2]: < 100 nM

CN(CCCN)CCCNC(=O)c1nc(NC(=O)c2cc(NC(=O)CCNC(=O)c3nc(NC(=O)CCCNC(=O)c4cc(NC(=O)c5nc(NC(=O)CCNC(=O)c6cc(NC(=O)c7nccn7C)cn6C)cn5C)cn4CCCCCCN=[N+]=[N-])cn3C)cn2C)cn1C [Compound B-364]
EC50 [1]: > 1000 nM | EC50 [2]: 100 to 500 nM

CN(CCCNC(=O)c1cccc(C(=O)OC(C)(C)C)c1)CCCNC(=O)c1nc(NC(=O)c2cc(NC(=O)CCNC(=O)c3nc(NC(=O)CCCNC(=O)c4cc(NC(=O)c5nc(NC(=O)CCNC(=O)c6cc(NC(=O)c7nccn7C)cn6C)cn5C)cn4CCCCCCN=[N+]=[N-])cn3C)cn2C)cn1C [Compound B-365]
EC50 [1]: 100 to 500 nM | EC50 [2]: < 100 nM

CCCNC(=O)c1cc(NC(=O)CCNC(=O)c2nc(NC(=O)[C@H](N)CCNC(=O)c3cc(NC(=O)c4nc(NC(=O)CCNC(=O)c5cc(NC(=O)c6nccn6C)cn5C)cn4C)cn3C)cn2C)cn1C [Compound B-366]
EC50 [1]: > 1000 nM | EC50 [2]: > 1000 nM

CN(C)CCCNC(=O)c1cc(NC(=O)CCNC(=O)c2nc(NC(=O)[C@H](N)CCNC(=O)c3cc(NC(=O)c4nc(NC(=O)CCNC(=O)c5cc(NC(=O)c6nccn6C)cn5C)cn4C)cn3C)cn2C)cn1C [Compound B-367]
EC50 [1]: > 1000 nM | EC50 [2]: > 1000 nM

CN(CCCNC(=O)c1cccc(C(=O)O)c1)CCCNC(=O)c1cc(NC(=O)CCNC(=O)c2nc(NC(=O)[C@H](N)CCNC(=O)c3cc(NC(=O)c4nc(NC(=O)CCNC(=O)c5cc(NC(=O)c6nccn6C)cn5C)cn4C)cn3C)cn2C)cn1C [Compound B-368]
EC50 [1]: > 1000 nM | EC50 [2]: > 1000 nM

COC(=O)CCCN(CCCC(=O)OC)Cc1ncc(C2CN(C(=O)CCNC(=O)c3nc(NC(=O)c4cc(NC(=O)CCNC(=O)c5nc(NC(=O)CCCNC(=O)c6cc(NC(=O)c7nc(NC(=O)CCNC(=O)c8cc(NC(=O)c9nccn9C)cn8C)cn7C)cn6C)cn5C)cn4C)cn3C)C2)[nH]1 [Compound B-369]
EC50 [1]: 100 to 500 nM | EC50 [2]: > 1000 nM

COC(=O)CCCN(CCCC(=O)O)Cc1ncc(C2CN(C(=O)CCNC(=O)c3nc(NC(=O)c4cc(NC(=O)CCNC(=O)c5nc(NC(=O)CCCNC(=O)c6cc(NC(=O)c7nc(NC(=O)CCNC(=O)c8cc(NC(=O)c9nccn9C)cn8C)cn7C)cn6C)cn5C)cn4C)cn3C)C2)[nH]1 [Compound B-370]
EC50 [1]: > 1000 nM | EC50 [2]: > 1000 nM

Cn1cc(NC(=O)c2nc(NC(=O)CCNC(=O)c3cc(NC(=O)c4nccn4C)cn3C)cn2C)cc1C(=O)NCCCC(=O)Nc1cn(C)c(C(=O)NCCC(=O)Nc2cc(C(=O)Nc3cn(C)c(C(=O)NCCC(=O)N4CC(c5cnc(CN(CCCC(=O)O)CCCC(=O)O)[nH]5)C4)n3)n(C)c2)n1 [Compound B-371]
EC50 [1]: > 1000 nM | EC50 [2]: > 1000 nM

CCCNC(=O)CCNC(=O)c1nc(NC(=O)c2cc(NC(=O)CCNC(=O)c3nc(NC(=O)CCCNC(=O)c4cc(NC(=O)c5nc(NC(=O)CCNC(=O)c6cc(NC(=O)c7nccn7C)cn6C)cn5C)cn4CCOCCNC(=O)OC(C)(C)C)cn3C)cn2C)cn1C [Compound B-372]
EC50 [1]: < 100 nM | EC50 [2]: < 100 nM
